# From ChEMBL document CHEMBL1155012, “Modulation of peripheral serotonin levels by novel tryptophan hydroxylase inhibitors for the potential treatment of functional gastrointestinal disorders” (J Med Chem, 2008)
# Molecular target: Tryptophan 5-hydroxylase 1 (Homo sapiens) (UniProt P17752)
# Experiment: Inhibition of TPH1 in human BON cells assessed as inhibition of serotonin biosynthesis
# Chain of Tryptophan 5-hydroxylase 1 (Homo sapiens) (P17752 whole entry, looked up): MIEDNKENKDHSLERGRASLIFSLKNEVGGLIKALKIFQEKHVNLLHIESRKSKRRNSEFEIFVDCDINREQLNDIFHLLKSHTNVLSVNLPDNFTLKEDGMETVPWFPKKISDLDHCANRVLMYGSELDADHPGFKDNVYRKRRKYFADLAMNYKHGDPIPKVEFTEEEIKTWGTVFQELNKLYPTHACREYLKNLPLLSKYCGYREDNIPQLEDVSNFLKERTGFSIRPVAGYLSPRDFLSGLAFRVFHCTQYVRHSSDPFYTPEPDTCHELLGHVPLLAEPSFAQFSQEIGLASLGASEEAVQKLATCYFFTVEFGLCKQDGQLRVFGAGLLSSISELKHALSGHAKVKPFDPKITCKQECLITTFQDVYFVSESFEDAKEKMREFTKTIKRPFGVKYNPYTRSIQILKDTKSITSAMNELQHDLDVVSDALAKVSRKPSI
row,SMILES,EC50
1,Cc1cccc(-c2ccccc2C(Oc2cc(-c3ccc(C[C@H](N)C(=O)O)cc3)nc(N)n2)C(F)(F)F)c1 (some centres undefined),560 nM
2,Nc1nc(OC(c2ccccc2-c2ccco2)C(F)(F)F)cc(-c2ccc(C[C@H](N)C(=O)O)cc2)n1 (some centres undefined),800 nM
3,Nc1nc(OC(c2ccccc2-n2ccc(C(F)(F)F)n2)C(F)(F)F)cc(-c2ccc(C[C@H](N)C(=O)O)cc2)n1 (some centres undefined),750 nM
4,Nc1nc(OC(c2sccc2-c2ccco2)C(F)(F)F)cc(-c2ccc(C[C@H](N)C(=O)O)cc2)n1 (some centres undefined),1190 nM
